Measurements reported in the supplement of paper PMC11997997.

What was measured:
[1] = test system: murine bone marrow-derived macrophages; assay: area under cytotoxicity dose-response curve (AUC (% cytotoxicity x dose, relative)); higher = more cytotoxic; conditions: duration: 6 days; dose range: 0.13-80 uM, 8 points
Summary of the method: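 Cytotoxicity is given as the area under the dose–response curve, computed in GraphPad Prism version 10. Primary murine bone marrow-derived macrophages in opaque 384-well plates received an 8-point, 2.5-fold dilution series (final 80–0.13 μM) for 6 days at 37 °C in 5% CO2. Viability was measured by Promega's CellTiter-Glo luminescence assay, with percent cytotoxicity normalised to vehicle and positive control wells.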

[2] = test system: Mycobacterium tuberculosis CDC1551 (intracellular, in murine BMDM); assay: area under intracellular growth-inhibition dose-response curve (AUC (% inhibition x dose, relative)); higher = more potent; conditions: duration: 6 days; dose range: 0.13-80 uM, 8 points
Summary of the method: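 Luciferase-expressing M. tuberculosis CDC1551 was used at multiplicity of infection 1 for 1 h to infect primary murine bone marrow-derived macrophages in 384-well opaque plates, 24 h after seeding. Treatment followed for 6 days with an 8-dose, 2.5-fold series at final concentrations of 80–0.13 μM. GraphPad Prism was used to calculate the area under the growth-inhibition dose–response curve from Bright-Glo luciferin readings normalised to a reference drug control and the lowest-concentration wells.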

`O=C(/C=C/c1ccc([N+](=O)[O-])o1)NNC(=O)c1ccc(F)cc1` was tested, and the “area under cytotoxicity dose-response curve” value [1] was 51.9 and the “area under intracellular growth-inhibition dose-response curve” value [2] was 19.6.
`COc1cccc(OCC(=O)NC2CCCCC2)c1` was tested, and the “area under cytotoxicity dose-response curve” value [1] was 94 and the “area under intracellular growth-inhibition dose-response curve” value [2] was 226.
`O=C(CCCOc1ccc(Br)cc1)NNC(=O)c1ccncc1` was tested, and the “area under cytotoxicity dose-response curve” value [1] was 24.1 and the “area under intracellular growth-inhibition dose-response curve” value [2] was 256.
For `CCCN(CCC)CC(O)Cn1cc(/C=C/C(=O)c2ccccc2)c2ccccc21` (configuration not stated), the “area under cytotoxicity dose-response curve” value [1] was 9.39 and the “area under intracellular growth-inhibition dose-response curve” value [2] was 226.
For `O=[N+]([O-])c1cc([N+](=O)[O-])c2nonc2c1Nc1ccccc1O`, the “area under cytotoxicity dose-response curve” value [1] was 5.05 and the “area under intracellular growth-inhibition dose-response curve” value [2] was 146.
For `COc1ccc(NC(=S)Nc2ccc(Oc3ccccc3)cc2)cc1`, the “area under cytotoxicity dose-response curve” value [1] was under 0 and the “area under intracellular growth-inhibition dose-response curve” value [2] was 233.
With `Cc1nn(CC(=O)NC2C(=O)N3C(C(=O)O)=C(CSc4nnnn4C)CSC23)cc1Br` (configuration not stated) the “area under cytotoxicity dose-response curve” value [1] was 30.6 and the “area under intracellular growth-inhibition dose-response curve” value [2] was 236.
For `CCN(CC)CCN(C(=O)C1=COCCO1)c1nc2cc(C)cc(C)c2s1.Cl`, the “area under cytotoxicity dose-response curve” value [1] was 22.7 and the “area under intracellular growth-inhibition dose-response curve” value [2] was 227.
With `NC(=S)N/N=C/c1ccc2c(c1)OCCO2` the “area under cytotoxicity dose-response curve” value [1] was under 0 and the “area under intracellular growth-inhibition dose-response curve” value [2] was 263.
With `CC1CCC(C(C)C)C(OC(=O)C[n+]2c(-c3ccccc3)n(C)c3ccccc32)C1.[Cl-]` (configuration not stated) the “area under cytotoxicity dose-response curve” value [1] was 56.7 and the “area under intracellular growth-inhibition dose-response curve” value [2] was 202.
In the case of `O=C(Cn1c(=O)cnc2ccccc21)Nc1cccc(S(=O)(=O)N2CCOCC2)c1`, the “area under cytotoxicity dose-response curve” value [1] is reported as 30.4 and the “area under intracellular growth-inhibition dose-response curve” value [2] is reported as 23.9.
In the case of `COc1cc(/C=N/NC(=O)c2ccncc2)ccc1Oc1ccc([N+](=O)[O-])cn1`, the “area under cytotoxicity dose-response curve” value [1] is reported as 71.3 and the “area under intracellular growth-inhibition dose-response curve” value [2] is reported as 194.
For `C=C1c2cccc(O)c2C(=O)C2C(=O)[C@]3(O)C(=O)C(C(N)=O)C(=O)[C@@H](N(C)C)[C@@H]3[C@@H](O)[C@H]12.Cl` (some centres not stated), the “area under cytotoxicity dose-response curve” value [1] was 3.53 and the “area under intracellular growth-inhibition dose-response curve” value [2] was 272.
In the case of `COc1ccc(C(=O)Oc2cccc(/C=N/NC(N)=S)c2)cc1`, the “area under cytotoxicity dose-response curve” value [1] is reported as 65 and the “area under intracellular growth-inhibition dose-response curve” value [2] is reported as 145.
For `CCN(CC)C(=O)CSc1nnc2nnc3cc(Cl)ccc3n12`, the “area under cytotoxicity dose-response curve” value [1] was 55.1 and the “area under intracellular growth-inhibition dose-response curve” value [2] was 219.
With `COc1ccc(C/C(C)=N/NC(=O)c2ccncc2)cc1` the “area under cytotoxicity dose-response curve” value [1] was 40.9 and the “area under intracellular growth-inhibition dose-response curve” value [2] was 261.
For `O=C(CC1CCCCC1)NCc1ccccn1`, the “area under cytotoxicity dose-response curve” value [1] was 3.91 and the “area under intracellular growth-inhibition dose-response curve” value [2] was 222.
In the case of `CCCCCCCn1c(=O)c(C(=O)Nc2cnccn2)c(O)c2ccccc21`, the “area under cytotoxicity dose-response curve” value [1] is reported as 7.68 and the “area under intracellular growth-inhibition dose-response curve” value [2] is reported as 66.
`Cc1nn2c(O)cc(-c3ccc([N+](=O)[O-])cc3)nc2c1-c1ccccc1` was tested, and the “area under cytotoxicity dose-response curve” value [1] was 99.5 and the “area under intracellular growth-inhibition dose-response curve” value [2] was 128.
In the case of `C/C(=N\NC(=O)c1ccncc1)c1ccc(N(C)C)cc1`, the “area under cytotoxicity dose-response curve” value [1] is reported as 58.7 and the “area under intracellular growth-inhibition dose-response curve” value [2] is reported as 182.
For `O=P1(c2ccccc2)Nc2ccccc2N1c1ccccc1` (configuration not stated), the “area under cytotoxicity dose-response curve” value [1] was 8.15 and the “area under intracellular growth-inhibition dose-response curve” value [2] was 264.
`O=C(CSc1cccc[n+]1[O-])Nc1ccccc1Oc1ccccc1` was tested, and the “area under cytotoxicity dose-response curve” value [1] was 53.2 and the “area under intracellular growth-inhibition dose-response curve” value [2] was 39.4.
For `O=C(/C=C/c1cn(CC(O)CN2CCCCCC2)c2ccccc12)c1cccs1` (configuration not stated), the “area under cytotoxicity dose-response curve” value [1] was under 0 and the “area under intracellular growth-inhibition dose-response curve” value [2] was 96.5.
With `O=C(N/N=C/c1cccc2nccnc12)c1ccncc1` the “area under cytotoxicity dose-response curve” value [1] was 36.1 and the “area under intracellular growth-inhibition dose-response curve” value [2] was 271.
For `CCOc1ccc(NC(=O)CCc2nnc3ccc(N4CCC(C)CC4)nn23)cc1`, the “area under cytotoxicity dose-response curve” value [1] was 65.6 and the “area under intracellular growth-inhibition dose-response curve” value [2] was 30.4.
`CCOC(=O)c1c(-c2ccccc2)nc2cc(C)ccn12` was tested, and the “area under cytotoxicity dose-response curve” value [1] was 1.58 and the “area under intracellular growth-inhibition dose-response curve” value [2] was 147.
